What all share (design): species or system AML cell lines (8); Primary HTS, single concentration about 10 uM, Cell Titer Glo viability; log10 luminescence, per cent inhibition relative to cycloheximide control
Common to all, as to conditions: 72 h, relative to cycloheximide control, log10 luminescence, inhibitor

For experiment [1], the system named is CHRF288-11.
Experiment [2] relates to MOLM-13.
The test system of experiment [3] is MV4-11.
Experiment [4] relates to CMK.
Experiment [5] concerns U937.
Experiment [6] has as its system ML-2.
The subject of experiment [7] is CMS.
Experiment [8] relates to M07e.

Where two headings read alike, the source gives them in different places.

For `CC(=O)[C@@H]1[C@@H](C)N(Cc2ccccc2)C(=O)N[C@H]1c1cccc(C(F)(F)F)c1` [SJ000579797-1], the CHRF288-11 %inh in experiment [1] came to 8.301%. Further, in experiment [2], the MOLM-13 %inh is -2.815%. In addition, the MV4-11 %inh in experiment [3] worked out at 0.5112%. In experiment [4], the CMK %inh was -5.628%. For the same compound, the U937 %inh in experiment [5] is 0.542%. Further, in experiment [6], the ML-2 %inh is 0.485%. In experiment [7], the CMS %inh came out at 1.099%. Moreover, in experiment [8], the M07e %inh is given as -1.436%.

As to `NS(=O)(=O)c1cc2c(cc1Cl)NC(C(Cl)Cl)NS2(=O)=O` (centres unmarked) [SJ000286143-4, TRICHLORMETHIAZIDE], the CHRF288-11 %inh in experiment [1] worked out at 5.642%. For the same compound, the MOLM-13 %inh in experiment [2] is -1.049%. Also, in experiment [3], the MV4-11 %inh is recorded as -3.026%. Further, in experiment [4], the CMK %inh is 3.577%. In addition, in experiment [5], the U937 %inh is -14.58%. In addition, the ML-2 %inh in experiment [6] was -0.7669%. In addition, in experiment [7], the CMS %inh was 0.3933%. Besides, the M07e %inh in experiment [8] is recorded as -1.321%.

`CC1=C(C(=O)Nc2ccc3[nH]ncc3c2)C(c2ccc(F)cc2)NC(=O)N1` (centres unmarked) [SJ000573212-1, SD203460-064A1]: the CHRF288-11 %inh in experiment [1] stood at 14.28%. Besides, the MOLM-13 %inh in experiment [2] is recorded as -1.98%. Also, the MV4-11 %inh in experiment [3] was determined as 13.33%. For the same compound, the CMK %inh in experiment [4] is on record as 22.73%. In addition, the U937 %inh in experiment [5] stood at 0.2192%. Moreover, the ML-2 %inh in experiment [6] stood at 7.379%. In addition, the CMS %inh in experiment [7] came out at 3.347%. Also, the M07e %inh in experiment [8] was 2.046%.

As to `Cn1cc(C2=C(c3c[nH]c4ccccc34)C(=O)NC2=O)c2ccccc21` [SJ000581069-1], in experiment [1], the CHRF288-11 %inh stood at 37%. In experiment [2], the MOLM-13 %inh came out at 79.5%. Moreover, the MV4-11 %inh in experiment [3] was 15.94%. For the same compound, the CMK %inh in experiment [4] is 44.1%. Further, in experiment [5], the U937 %inh is on record as 53.14%. Also, the ML-2 %inh in experiment [6] is 39.66%. Besides, in experiment [7], the CMS %inh turned out to be 13.88%. The M07e %inh in experiment [8] was 40.86%.

On to `CS(=O)(=O)CCNCc1ccc(-c2ccc3ncnc(Nc4ccc(OCc5cccc(C(F)(F)F)c5)cc4)c3c2)o1` [SJ000573107-1, U14801/49/2], for which the CHRF288-11 %inh in experiment [1] was found to be 2.523%. In experiment [2], the MOLM-13 %inh was found to be 82.16%. For the same compound, the MV4-11 %inh in experiment [3] is listed as 64.67%. The CMK %inh in experiment [4] turned out to be 3.779%. The U937 %inh in experiment [5] is -2.16%. Also, the ML-2 %inh in experiment [6] was 1.894%. For the same compound, in experiment [7], the CMS %inh was 0.378%. Also, in experiment [8], the M07e %inh was -0.9182%.

Take `CCOC(=O)[C@H](CCc1ccccc1)N[C@@H](C)C(=O)N1[C@H](C(=O)O)C[C@H]2CCCC[C@@H]21` [SJ000286095-3, TRANDOLAPRIL]: in experiment [1], the CHRF288-11 %inh is on record as 2.18%. In addition, the MOLM-13 %inh in experiment [2] amounted to 4.361%. Further, the MV4-11 %inh in experiment [3] is 3.149%. In experiment [4], the CMK %inh is given as -2.955%. Also, in experiment [5], the U937 %inh was 1.075%. The ML-2 %inh in experiment [6] was -0.1668%. The CMS %inh in experiment [7] is reported as -0.04443%. Further, in experiment [8], the M07e %inh was found to be 4.953%.

Turning to `CO[C@H]1/C=C/O[C@@]2(C)Oc3c(C)c(O)c4c(O)c(c(/C=N/N5CCN(C6CCCC6)CC5)c(O)c4c3C2=O)NC(=O)/C(C)=C\C=C\[C@H](C)[C@H](O)[C@@H](C)[C@@H](O)[C@@H](C)[C@H](OC(C)=O)[C@@H]1C` [SJ000556738-2, RIFAPENTINE], the CHRF288-11 %inh in experiment [1] (CHRF288-11 %inh, 10 µM) is reported as -2.807%. Moreover, in experiment [2] (MOLM-13 %inh, 10 µM), the MOLM-13 %inh is given as 7.481%. In addition, the MV4-11 %inh in experiment [3] (MV4-11 %inh, 10 µM) came out at 5.68%. In addition, in experiment [4] (CMK %inh, 10 µM), the CMK %inh was -1.103%. The U937 %inh in experiment [5] (U937 %inh, 10 µM) turned out to be 26.01%. Moreover, the ML-2 %inh in experiment [6] (ML-2 %inh, 10 µM) came out at 7.469%. Further, the CMS %inh in experiment [7] (CMS %inh, 10 µM) turned out to be 24.93%. In experiment [8] (M07e %inh, 10 µM), the M07e %inh is recorded as 2.598%.

As for `Nc1ccc(S(=O)(=O)Nc2ccccn2)cc1` [SJ000285852-4, SULFAPYRIDINE], in experiment [1] (CHRF288-11 %inh, 10 µM), the CHRF288-11 %inh was -1.153%. The MOLM-13 %inh in experiment [2] (MOLM-13 %inh, 10 µM) is recorded as -2.284%. In addition, the MV4-11 %inh in experiment [3] (MV4-11 %inh, 10 µM) was 0.2362%. Besides, in experiment [4] (CMK %inh, 10 µM), the CMK %inh is reported as -3.962%. For the same compound, the U937 %inh in experiment [5] (U937 %inh, 10 µM) is listed as 2.235%. Moreover, the ML-2 %inh in experiment [6] (ML-2 %inh, 10 µM) stood at 1.702%. Moreover, the CMS %inh in experiment [7] (CMS %inh, 10 µM) stood at 2.156%. Also, the M07e %inh in experiment [8] (M07e %inh, 10 µM) is -0.2217%.

With `CC(CO)Nc1cc(-c2[nH]c3cccnc3c2-c2ccc(F)cc2)ccn1` (centres unmarked) [SJ000581157-1], the CHRF288-11 %inh in experiment [1] is reported as 7.035%. In experiment [2], the MOLM-13 %inh is given as 1.967%. The MV4-11 %inh in experiment [3] amounted to 5.71%. For the same compound, the CMK %inh in experiment [4] was 13.38%. Also, in experiment [5], the U937 %inh was found to be 3.658%. In addition, the ML-2 %inh in experiment [6] was 3.05%. In addition, the CMS %inh in experiment [7] is 7.57%. Moreover, the M07e %inh in experiment [8] is reported as 3.935%.

Consider `CCNC(=O)[C@@H]1CCCN2C(=O)CC[C@H](NC(=O)[C@H](Cc3ccc(OP(=O)(O)O)cc3)NC(C)=O)C(=O)N12` [SJ000581112-1], for which the CHRF288-11 %inh in experiment [1] was -7.883%. The MOLM-13 %inh in experiment [2] worked out at 0.008932%. Further, in experiment [3], the MV4-11 %inh is 1.373%. Also, the CMK %inh in experiment [4] worked out at 0.5327%. In addition, in experiment [5], the U937 %inh worked out at 0.08443%. Moreover, in experiment [6], the ML-2 %inh turned out to be 2.455%. The CMS %inh in experiment [7] is -0.07964%. Also, the M07e %inh in experiment [8] came out at 4.13%.

Turning to `COC(=O)/C=C/c1cccc(N(Cc2ccc(-c3ccc(N(C)C)cc3)cc2)C(=O)C2CCCCC2)c1` [SJ000546510-1, FEXARAMINE], the CHRF288-11 %inh in experiment [1] is on record as -3.158%. In experiment [2], the MOLM-13 %inh is -2.683%. Moreover, in experiment [3], the MV4-11 %inh was -0.6838%. For the same compound, the CMK %inh in experiment [4] is reported as -0.2535%. Besides, in experiment [5], the U937 %inh was -1.175%. Besides, in experiment [6], the ML-2 %inh came out at 2.174%. Besides, in experiment [7], the CMS %inh was found to be 0.8467%. In addition, the M07e %inh in experiment [8] is 1.611%.

Consider `CCOC(=O)[C@H](CCc1ccccc1)N[C@@H](C)C(=O)N1[C@H](C(=O)O)C[C@@H]2CCC[C@@H]21` [SJ000287048-3], for which, in experiment [1], the CHRF288-11 %inh is -4.815%. In addition, in experiment [2], the MOLM-13 %inh is on record as -1.2%. For the same compound, the MV4-11 %inh in experiment [3] was 3.659%. In experiment [4], the CMK %inh turned out to be 1.362%. For the same compound, the U937 %inh in experiment [5] is listed as 1.846%. For the same compound, the ML-2 %inh in experiment [6] is given as -0.556%. For the same compound, in experiment [7], the CMS %inh is -0.1854%. For the same compound, the M07e %inh in experiment [8] was -2.965%.

As for `Cc1nn(C)c2cc(N(C)c3ccnc(Nc4cccc(S(N)(=O)=O)c4)n3)ccc12` [SJ000573237-1, U17574/1/1], the CHRF288-11 %inh in experiment [1] came out at 20.72%. For the same compound, in experiment [2], the MOLM-13 %inh is on record as 82.12%. Moreover, the MV4-11 %inh in experiment [3] is on record as 42.73%. Moreover, the CMK %inh in experiment [4] is recorded as 54.18%. In experiment [5], the U937 %inh is given as 9.474%. Further, the ML-2 %inh in experiment [6] is reported as 1.956%. In addition, the CMS %inh in experiment [7] was determined as 12.43%. In addition, the M07e %inh in experiment [8] is 4.667%.

For the compound `Nc1c(C(=O)c2cccc(-c3cccnc3)c2)cnn1-c1ccc(F)cc1F` [SJ000581002-1], in experiment [1], the CHRF288-11 %inh was 23.74%. Besides, the MOLM-13 %inh in experiment [2] amounted to 19.66%. For the same compound, the MV4-11 %inh in experiment [3] amounted to 0.1873%. In experiment [4], the CMK %inh is reported as 96.76%. Further, the U937 %inh in experiment [5] is 25.61%. For the same compound, in experiment [6], the ML-2 %inh is given as 15.07%. Further, the CMS %inh in experiment [7] was 5.431%. For the same compound, the M07e %inh in experiment [8] is 15.2%.

Regarding `Cc1nnc(C(C)C)n1[C@@H]1C[C@H]2CC[C@@H](C1)N2CC[C@H](NC(=O)C1CCC(F)(F)CC1)c1ccccc1` [SJ000555710-1, MARAVIROC], the CHRF288-11 %inh in experiment [1] was found to be 3.241%. The MOLM-13 %inh in experiment [2] is recorded as -2.386%. Further, in experiment [3], the MV4-11 %inh is 0.334%. The CMK %inh in experiment [4] is -4.287%. For the same compound, in experiment [5], the U937 %inh is listed as -1.411%. Besides, the ML-2 %inh in experiment [6] is on record as -1.344%. For the same compound, the CMS %inh in experiment [7] is -2.259%. The M07e %inh in experiment [8] is given as 0.2532%.

With `CN(C)CCCn1c(-c2nonc2N)nc2cnccc21` [SJ000573146-1, NB100580-138A1], the CHRF288-11 %inh in experiment [1] is -1.122%. Further, the MOLM-13 %inh in experiment [2] is on record as -2.29%. In experiment [3], the MV4-11 %inh was -1.385%. The CMK %inh in experiment [4] came out at 9.262%. The U937 %inh in experiment [5] is on record as 0.1912%. In addition, in experiment [6], the ML-2 %inh is -0.381%. In addition, in experiment [7], the CMS %inh is given as -2.565%. For the same compound, the M07e %inh in experiment [8] is on record as -3.074%.

The values above are taken from PMC6522510 (Nature Communications, 2019).
